Molecules are shown by their SMILES.

The text below walks through data of US20230265089A1, “QUINOLINE DERIVATIVES, PHARMACEUTICALLY ACCEPTABLE SALTS, AND METHODS OF USE THEREOF” (vTv Therapeutics LLC, priority 2020, published 2023).

The test deals with T1, PDE4D7 (Homo sapiens, UniProt Q08499).
T1 construct: purchased BPS BioSciences 60708
T1 sequence (Q08499 1-748 isoform Q08499-11): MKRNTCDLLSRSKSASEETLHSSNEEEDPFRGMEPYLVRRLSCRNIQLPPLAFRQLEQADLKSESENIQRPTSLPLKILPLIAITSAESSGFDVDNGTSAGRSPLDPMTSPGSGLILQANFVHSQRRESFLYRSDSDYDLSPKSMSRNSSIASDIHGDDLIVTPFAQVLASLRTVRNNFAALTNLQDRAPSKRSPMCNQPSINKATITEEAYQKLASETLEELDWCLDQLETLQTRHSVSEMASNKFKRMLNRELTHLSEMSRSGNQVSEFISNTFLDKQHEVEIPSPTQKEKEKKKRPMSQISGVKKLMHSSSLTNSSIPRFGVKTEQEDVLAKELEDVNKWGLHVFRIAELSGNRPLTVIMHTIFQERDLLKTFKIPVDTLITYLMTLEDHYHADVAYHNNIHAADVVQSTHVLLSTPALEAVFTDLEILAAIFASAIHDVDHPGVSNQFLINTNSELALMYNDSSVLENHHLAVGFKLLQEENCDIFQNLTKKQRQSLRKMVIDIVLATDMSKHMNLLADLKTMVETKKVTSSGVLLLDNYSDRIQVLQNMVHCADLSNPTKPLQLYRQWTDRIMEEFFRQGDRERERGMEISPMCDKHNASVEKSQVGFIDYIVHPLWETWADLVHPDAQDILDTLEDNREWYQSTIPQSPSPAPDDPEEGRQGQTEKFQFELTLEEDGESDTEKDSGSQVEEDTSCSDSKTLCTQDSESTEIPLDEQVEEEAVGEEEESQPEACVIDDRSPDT
As to the kind of experiment: PDE4D7 TR-FRET assay. The format is biochemical. To be noted: TR-FRET assay kit, FAM-cAMP substrate. In general terms: Time-resolved FRET reads energy transfer from a long-lived donor to a nearby acceptor.
Text: According to BPS Biosciences product information, the PDE4D7 TR-FRET assay is designed for identification of inhibitors of PDE4D7 using TR-FRET (Time Resolved Fluorescence Resonance Energy Transfer) technology. The assay is based on the generation of FAM-labeled nucleotide monophosphates by the phosphodiesterase. These phosphate groups bind to terbium-labeled nanoparticles, resulting in energy transfer from the terbium to the FAM, which emits a fluorescent signal at 520 nm. The change in fluorescent intensity can be easily measured using a fluorescence plate reader.
The general assay protocol for PDE4D7 TR-FRET assay used to obtain the experimental data described below includes two steps: First, the fluorescent-labeled cAMP is incubated with a sample containing PDE4D7 for 1 hour. Second, a binding agent and a terbium donor are added to the reaction mix and incubated for 1 hour. Then, fluorescence intensity can be measured using a fluorescence reader. A detailed protocol is as follows
Step 1: Dilute 20 μM FAM-Cyclic-3′,5′-AMP substrate stock solution 100-fold with PDE buffer to make a 200 nM solution. Make only a sufficient quantity needed for the assay; store remaining stock solution in aliquots at −20° C. Add 25 μl of FAM-Cyclic-3′,5′-AMP (200 nM) to each well designated “Substrate Control”, “Positive Control”, and “Test Inhibitor”. Add 25 μl of PDE assay buffer to each well designated “Tb-only Control”. Add 5 μl of inhibitor solution to each well designated “Test Inhibitor”. Add 5 μl of the same solution without inhibitor (inhibitor buffer) to the “Tb-only Control”, “Substrate Control” and “Positive Control”. Thaw PDE4D7 on ice. Upon first thaw, briefly spin tube containing enzyme to recover the full contents of the tube. […]
Step 2: Make binding dilution buffer by mixing equal volumes of Binding buffer A and Binding buffer B. For example, mix 1 ml Binding buffer A with 1 ml Binding buffer B. Mix binding agent thoroughly and dilute binding agent 1:50 with binding dilution buffer made in Step 1. […] Read the fluorescent intensity in a microtiter-plate reader capable of TR-FRET.
On to `COc1cccc2c1ncc1c(=O)n([C@H]3CC[C@H](C(=O)O)CC3)c(=O)n(-c3cccc(Cl)c3)c12` [COMPOUND I * HCI (Batch 1), trans-4-[1-(3-chlorophenyl)-7-methoxy-2,4-dioxo-pyrimido[5,4-c]quinolin-3-yl]cyclohexanecarboxylic acid], for which half-maximal inhibition (IC50) was put at 1.5 nM. In the case of `COc1cccc2c1ncc1c(=O)n([C@H]3CC[C@H](C(=O)O)CC3)c(=O)n(-c3cccc(Cl)c3)c12` [COMPOUND I * HCI (Batch 2), trans-4-[1-(3-chlorophenyl)-7-methoxy-2,4-dioxo-pyrimido[5,4-c]quinolin-3-yl]cyclohexanecarboxylic acid], the IC50 (in general, the point on the concentration scale where inhibition reaches its midpoint) came out at 3.3 nM. Under `COc1cccc2c1ncc1c(=O)n([C@H]3CC[C@H](C(=O)O)CC3)c(=O)n(-c3cccc(Cl)c3)c12` [COMPOUND I * HCI (Batch 3), trans-4-[1-(3-chlorophenyl)-7-methoxy-2,4-dioxo-pyrimido[5,4-c]quinolin-3-yl]cyclohexanecarboxylic acid] stands 1.1 nM.
